≈ marks a conversion by molar mass, not a printed value.
conditions: buffer; pH 7.4; 200.0 µM

solubility kinetic [µg/mL] | Structure (SMILES)
> 43.3 | Cc1ccc(CCN2CC(C(=O)NC(C)C)CC2=O)cc1 (centres undefined)
41.9 (≈ 144 µM) | CCSC1=C(C#N)C(CC(C)C)C2=C(CCCC2=O)N1 (centres undefined)
> 46.6 | CCn1cc(CNC(=S)Nc2cccc3ccccc23)cn1
14.6 (≈ 36.9 µM) | COc1ccc2cc(C3(C)NC(=O)N(CC(=O)N4CCCCC4)C3=O)ccc2c1 (centres undefined)
2.9 (≈ 9.82 µM) | CC(=O)Oc1ccc(-c2nc3c(C)cccc3c(=O)o2)cc1
> 49 | COc1ccc(CN(C)C(=O)CNC(=O)c2ccc(C)cc2)cc1
4.6 (≈ 17.5 µM) | O=C1C=C(NCc2ccccc2)c2ccccc2C1=O
44.4 (≈ 124 µM) | COc1cccc(NC(=S)N(CCC(C)C)C(C)c2ccncc2)c1 (centres undefined)
> 51.2 | CC(=O)Nc1ccc(Oc2ccc(NC(C)=O)c(NC(C)=O)c2)cc1
> 39.6 | CNC(=O)CSc1nnc(-c2cnccn2)n1C
12.6 (≈ 32.2 µM) | Cc1ccc(OCCNC(=O)CNC(=O)c2ccc(Cl)c([N+](=O)[O-])c2)cc1
35.9 (≈ 110 µM) | O=C(CSCc1c(Cl)cccc1Cl)Nc1cccnc1
< 0.3 | CCOC(=O)c1sc(=NC(=O)c2cccs2)n(C)c1C
3.2 (≈ 8.22 µM) | O=C(COC(=O)c1cccc(N2C(=O)C3CC=CCC3C2=O)c1)c1ccccc1 (centres undefined)
4.8 (≈ 16.8 µM) | Cc1ccc(C(=O)CCC(=O)Nc2ccccc2F)cc1
> 39.2 | Cc1ccc(CNC(=O)Nc2ccc(F)cc2)n1C
0.5 (≈ 1.37 µM) | Cc1cc(C(=O)Nc2cccc(NC(=O)c3ccco3)c2)ccc1[N+](=O)[O-]
> 45.8 | COc1ccc(CCNC(=O)c2ccc(C)s2)cc1OC
34.8 (≈ 99.9 µM) | CC(C)n1c(CN2CCN(Cc3ccccc3)CC2)nc2ccccc21

solubility kinetic [µg/mL] | Structure (SMILES)
2.7 (≈ 7.31 µM) | Cc1ccc(C(=O)NC(=S)Nc2ccc(CN3CCOCC3)cc2)cc1
0.4 (≈ 1.23 µM) | CC1(C)Cc2c(sc(NC(=O)Cc3ccccc3)c2C#N)CO1
> 51.2 | O=C(COC(=O)CCc1ccccc1)NCc1ccc2c(c1)OCO2
6.4 (≈ 15.3 µM) | O=C(CN1C(=O)NC(c2ccccc2)(c2ccccc2)C1=O)NCc1ccc(F)cc1
> 42.7 | O=C(NCCN1CCOCC1)c1ccc(Cl)cc1O
21.9 (≈ 93.5 µM) | Cn1c(/C=C/c2ccccc2)nc2ccccc21
< 0.2 | Cc1ccc(C)c(Nc2nc(-c3ccncc3)nc3ccccc23)c1
12.2 (≈ 24.5 µM) | CN(C)S(=O)(=O)c1cc(NC(=O)COC(=O)CC2Sc3ccccc3NC2=O)ccc1Cl (centres undefined)
> 69.5 | CC(=O)Nc1ccc(S(=O)(=O)NCC(=O)OCC(=O)NCc2ccc3c(c2)OCO3)cc1
35.1 (≈ 132 µM) | Cc1ccc2nc(-c3ccc4c(c3)OCCO4)cn2c1
> 46.7 | Cc1ccc(/C=N\NC(=O)C2CC(=O)N(c3ccccc3)C2)o1 (centres undefined)
6.7 (≈ 20.5 µM) | O=C(CO/N=C/c1ccc(OC(F)F)cc1)NC1CCCCC1
6.9 (≈ 22.9 µM) | CC1Cc2ccccc2N1CC(=O)NC(=O)NC1CCCC1 (centres undefined)
> 46.6 | CN(Cc1ccccc1)C(=O)C1CCN(S(C)(=O)=O)CC1
> 36.3 | CN(C)Cc1nc2ccccc2c(=O)n1CC#N
0.7 (≈ 2.22 µM) | Cc1cccc(N2CCN(C(=O)NC3CCCCC3)CC2)c1C
> 46.7 | CSCCCN1CCCC(CO)(Cc2ccccc2F)C1 (centres undefined)
1.6 (≈ 4.86 µM) | Fc1ccc(-c2csc(NC(=S)Nc3ccccc3)n2)cc1
0.6 (≈ 2.17 µM) | Cc1c(C=C2C(=O)c3ccccc3C2=O)cc(C#N)n1C

solubility kinetic [µg/mL] | Structure (SMILES)
29.1 (≈ 102 µM) | CCNC(=O)COc1ccc(OCc2ccccc2)cc1
4.8 (≈ 13.1 µM) | CN(Cc1nc2ccccc2c(=O)[nH]1)C(=O)c1cc2c(s1)CCCCC2
> 50.8 | COCc1nnc(NC(=O)C2CC(=O)N(C3CCCCC3)C2)s1 (centres undefined)
> 35 | CC(=O)Nc1cccc(-c2csc(N)n2)c1
4.3 (≈ 13.7 µM) | COc1cccc(NC(=O)CC(=O)c2ccc([N+](=O)[O-])cc2)c1
> 73.3 | Cc1ccc(S(=O)(=O)N(C)C)cc1NC(=O)COC(=O)COc1ccc2c(C)cc(=O)oc2c1
45.4 (≈ 144 µM) | CN(C(=O)CSc1ncnc2ccccc12)C1CCCCC1
> 35.3 | CCNC(=O)NC(=O)CN(C)c1ccccc1
25 (≈ 125 µM) | CCC(=O)Nc1cccc2cccnc12
> 44.7 | O=C(Nc1ccc(F)cc1)C(=O)C1C(=O)Nc2ccccc21 (centres undefined)
< 0.3 | COc1ccc(N2CCN(C(=S)NCc3ccc(C)cc3)CC2)cc1
2.7 (≈ 6.96 µM) | Cc1cc(-n2c(C)cc(C(=O)COc3ccc(Cl)cc3C(N)=O)c2C)no1
> 45.5 | CCOC(=O)c1ccc(N2C(=O)CC(C)(CC)CC2=O)cc1
> 34.1 | O/N=C(\c1ccccc1)C(O)c1ccccc1 (centres undefined)
> 44.6 | CN(Cc1nc2ccccc2[nH]1)Cc1nc(CC2CC2)no1
46.2 (≈ 138 µM) | CCCC1(C(=O)OCC)NC(c2ccco2)C2C(=O)N(C)C(=O)C21 (centres undefined)
> 51.6 | O=C(NCCc1csc(-c2cccnc2)n1)c1cccc(Cl)c1
36.3 | Cc1sc2c3ccsc3ccc2[n+]1C.[I-]

Structure (SMILES) | solubility kinetic [µg/mL]
CCC1(OC(=O)c2ccccc2)CC(C)N(C)CC1C.Cl (centres undefined) | 30.3
CN(C)C(=O)Oc1ccc2c(c1)O/C(=C\c1ccc(Cl)cc1)C2=O | 0.9 (≈ 2.62 µM)
C1CCCN(C2CCNCC2)CC1.Cl | > 38.3
